In patent US6310095A, “Inhibitors of protein isoprenyl transferases” (University of Pittsburgh, priority 1998, dated 2001):

The compounds below were run against T1, protein farnesyltransferase (Rattus norvegicus, UniProt Q02293+Q04631) (assay: in vitro inhibition of protein farnesyltransferase (scintillation proximity assay, biotin-K Ras B fragment)). Conditions: at 1 × 10^-5 M.
T1 construct: Rat brain protein farnesyltransferase activity is measured; from tissue; host or cells: rat brain; purified according to Reiss et al., Cell 62:81-88 (1990), steps one through three
Assay type: biochemical
In short: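 Scintillation proximity read-out of farnesylation, using a biotinylated K Ras B fragment (0.1 mM final) in place of biotin-lamin. Enzyme purified from rat brain; results given as % inhibition.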

| inhibition at 10 µM | Structure (SMILES) |
| --- | --- |
| 48% | CSCC[C@H](NC(=O)c1ccc(CNc2ccccc2N(C)C)cc1-c1ccccc1)C(=O)O [Example 672] |
| 40% | CSCC[C@H](NC(=O)c1ccc(CNc2cccc(C)c2)cc1-c1ccccc1)C(=O)O [Example 674] |
| 76% | CSCC[C@H](NC(=O)c1ccc(CNc2cccc(O)c2)cc1-c1ccccc1)C(=O)O [Example 676] |
| 73% | CSCC[C@H](NC(=O)c1ccc(CNc2cccc(OC(F)(F)F)c2)cc1-c1ccccc1)C(=O)O [Example 678] |
| 58% | CSCC[C@H](NC(=O)c1ccc(CNc2cccc(CO)c2)cc1-c1ccccc1)C(=O)O [Example 680] |
| 57% | CSCC[C@H](NC(=O)c1ccc(CNc2cccc(N(C)C)c2)cc1-c1ccccc1)C(=O)O [Example 683] |
| 48% | CSCC[C@H](NC(=O)c1ccc(CNc2cccc(CC(=O)O)c2)cc1-c1ccccc1)C(=O)O [Example 684] |
| 55% | CSCC[C@H](NC(=O)c1ccc(CNc2cccc(CCC(=O)O)c2)cc1-c1ccccc1)C(=O)O [Example 685] |
| 48% | CSCC[C@H](NC(=O)c1ccc(CNc2cccc(Oc3ccccc3)c2)cc1-c1ccccc1)C(=O)O [Example 686] |
| 78% | CSCC[C@H](NC(=O)c1ccc(CNc2ccc(F)cc2)cc1-c1ccccc1)C(=O)O [Example 687] |
| 71% | CSCC[C@H](NC(=O)c1ccc(CNc2ccc(I)cc2)cc1-c1ccccc1)C(=O)O [Example 688] |
| 73% | CSCC[C@H](NC(=O)c1ccc(CNc2ccc(O)cc2)cc1-c1ccccc1)C(=O)O [Example 689] |
| 61% | COc1ccc(NCc2ccc(C(=O)N[C@@H](CCSC)C(=O)O)c(-c3ccccc3)c2)cc1 [Example 690] |
| 74% | CSCC[C@H](NC(=O)c1ccc(CNc2ccc(C(C)C)cc2)cc1-c1ccccc1)C(=O)O [Example 692] |
| 74% | CSCC[C@H](NC(=O)c1ccc(CNc2ccc(C3CCCCC3)cc2)cc1-c1ccccc1)C(=O)O [Example 699] |
| 68% | CSCC[C@H](NC(=O)c1ccc(CNc2ccc(-c3ccccc3)cc2)cc1-c1ccccc1)C(=O)O [Example 700] |
| 64% | CSCC[C@H](NC(=O)c1ccc(CNc2ccc(Oc3ccccc3)cc2)cc1-c1ccccc1)C(=O)O [Example 701] |
| 79% | CSCC[C@H](NC(=O)c1ccc(CNc2ccc(C(=O)c3ccccc3)cc2)cc1-c1ccccc1)C(=O)O [Example 702] |
| 67% | CSCC[C@H](NC(=O)c1ccc(CNc2ccc(C)c(C)c2)cc1-c1ccccc1)C(=O)O [Example 704] |

| inhibition at 10 µM | Structure (SMILES) |
| --- | --- |
| 72% | CSCC[C@H](NC(=O)c1ccc(CNc2ccc3c(c2)CCC3)cc1-c1ccccc1)C(=O)O [Example 705] |
| 53% | CSCC[C@H](NC(=O)c1ccc(CNc2ccc3c(c2)Cc2ccccc2-3)cc1-c1ccccc1)C(=O)O [Example 706] |
| 76% | CSCC[C@H](NC(=O)c1ccc(CNc2ccc3ncccc3c2)cc1-c1ccccc1)C(=O)O [Example 708] |
| 55% | CSCC[C@H](NC(=O)c1ccc(CNc2cc(C)cc(C)c2)cc1-c1ccccc1)C(=O)O [Example 709] |
| 45% | CSCC[C@H](NC(=O)c1ccc(CNc2cc(C(=O)O)cc(C(=O)O)c2)cc1-c1ccccc1)C(=O)O [Example 710] |
| 46% | CCN(Cc1ccc(C(=O)N[C@@H](CCSC)C(=O)O)c(-c2ccccc2)c1)Cc1cc([N+](=O)[O-])ccc1O [Example 711] |
| 69% | CSCC[C@H](NC(=O)c1ccc(CNCc2cc(Cl)cc(Cl)c2)cc1-c1ccccc1)C(=O)O [Example 712] |
| 40% | CSCC[C@H](NC(=O)c1ccc(CNC(CO)C(O)c2ccccc2)cc1-c1ccccc1)C(=O)O (stereo partly shown) [Example 713] |
| 56% | CSCC[C@H](NC(=O)c1ccc(CNC(CO)Cc2ccccc2)cc1-c1ccccc1)C(=O)O (stereo partly shown) [Example 714] |
| 67% | CSCC[C@H](NC(=O)c1ccc(CN[C@H](CC2CCCCC2)[C@H](O)[C@H](O)CC(C)C)cc1-c1ccccc1)C(=O)O [Example 715] |
| 40% | CSCC[C@H](NC(=O)c1ccc(CNCCCCc2ccccc2)cc1-c1ccccc1)C(=O)O [Example 718] |
| 44% | CSCC[C@H](NC(=O)c1ccc(NC(=O)CCN)cc1-c1ccccc1)C(=O)O [Example 750] |
| 58% | CSCC[C@H](NC(=O)c1ccc(NC(=O)c2cccc(N(C)C)c2)cc1-c1ccccc1)C(=O)O [Example 752] |
| 55% | COc1cc(Cl)ccc1C(=O)Nc1ccc(C(=O)N[C@@H](CCSC)C(=O)O)c(-c2ccccc2)c1 [Example 753] |
| 40% | COc1ccc(Br)c(C(=O)Nc2ccc(C(=O)N[C@@H](CCSC)C(=O)O)c(-c3ccccc3)c2)c1 [Example 754] |
| 47% | COc1cc(I)c(C(=O)Nc2ccc(C(=O)N[C@@H](CCSC)C(=O)O)c(-c3ccccc3)c2)cc1OC [Example 756] |
| 58% | CSCC[C@H](NC(=O)c1ccc(NC(=O)Cc2ccccc2[N+](=O)[O-])cc1-c1ccccc1)C(=O)O [Example 757] |
| 46% | COc1ccc(C(=O)Nc2ccc(C(=O)N[C@@H](CCSC)C(=O)O)c(-c3ccccc3)c2)c(O)c1 [Example 758] |

Same assay, conditions: at 1 × 10^-6 M

| % inhibition of farnesyltransferase | Structure (SMILES) |
| --- | --- |
| 84% | CSCC[C@H](NC(=O)c1ccc(CSc2nc(O)cc(Cc3ccccc3)n2)cc1-c1ccccc1C)C(=O)O [Example 744] |

Same assay, conditions: at 1 × 10^-6 M; read-out: % inhibition of farnesyltransferase

| inhibition at 1 µM | Structure (SMILES) |
| --- | --- |
| 59% | CSCC[C@H](NC(=O)c1ccc(CNc2ccccc2N2CCCCC2)cc1-c1ccccc1)C(=O)O [Example 673] |
| 37% | CSCC[C@H](NC(=O)c1ccc(CNc2cccc(I)c2)cc1-c1ccccc1)C(=O)O [Example 677] |
| 31% | CSCC[C@H](NC(=O)c1ccc(CNc2cccc(C(N)=O)c2)cc1-c1ccccc1)C(=O)O [Example 682] |
| 34% | CSCC[C@H](NC(=O)c1ccc(CNc2ccc(OC(F)(F)F)cc2)cc1-c1ccccc1)C(=O)O [Example 691] |
| 53% | CSCC[C@H](NC(=O)c1ccc(CNc2ccc(C(O)(C(F)(F)F)C(F)(F)F)cc2)cc1-c1ccccc1)C(=O)O [Example 693] |
| 45% | CSCC[C@H](NC(=O)c1ccc(CNc2ccc(CCO)cc2)cc1-c1ccccc1)C(=O)O [Example 694] |
| 39% | CSCC[C@H](NC(=O)c1ccc(CNc2ccc(N3CCCCC3)cc2)cc1-c1ccccc1)C(=O)O [Example 697] |
| 40% | CSCC[C@H](NC(=O)c1ccc(CNc2ccc(-c3nc4ccccc4s3)cc2)cc1-c1ccccc1)C(=O)O [Example 703] |
| 69% | CSCC[C@H](NC(=O)c1ccc(CN[C@@H](CC2CCCCC2)[C@@H](O)[C@@H](O)CC(C)C)cc1-c1ccccc1)C(=O)O [Example 716] |
| 90% | CSCC[C@H](NC(=O)c1ccc(CN(C)CC(O)CO)cc1-c1ccccc1C)C(=O)O (stereo partly shown) [Example 719] |
| 87% | CCc1nnc(NCc2ccc(C(=O)N[C@@H](CCSC)C(=O)O)c(-c3ccccc3C)c2)s1 [Example 723] |
| 87% | COC(=O)c1cscc1NCc1ccc(C(=O)N[C@@H](CCSC)C(=O)O)c(-c2ccccc2C)c1 [Example 724] |
| 81% | CSCC[C@H](NC(=O)c1ccc(CNc2ccc(S(=O)(=O)Nc3onc(C)c3C)cc2)cc1-c1ccccc1C)C(=O)O [Example 726] |
| 95% | CSCC[C@H](NC(=O)c1ccc(CN[C@H](CO)Cc2ccccc2)cc1-c1ccccc1C)C(=O)O [Example 727] |
| 84% | CNCC(=O)Nc1ccc(C(=O)N[C@@H](CCSC)C(=O)O)c(-c2ccccc2)c1 [Example 749] |
| 32% | CSCC[C@H](NC(=O)c1ccc(NC(=O)C[C@H]2C[C@@H](C(C)=O)C2(C)C)cc1-c1ccccc1)C(=O)O [Example 751] |

Same assay, conditions: at 1 × 10^-7 M

| % inhibition of farnesyltransferase | Structure (SMILES) |
| --- | --- |
| 96% | CSCC[C@H](NC(=O)c1ccc(CSC2=NCCS2)cc1-c1ccccc1C)C(=O)O [Example 730] |
| 84% | CSCC[C@H](NC(=O)c1ccc(CSc2nc3ccccc3[nH]2)cc1-c1ccccc1C)C(=O)O [Example 732] |
| 60% | CSCC[C@H](NC(=O)c1ccc(CSc2nc3cc(C)ccc3[nH]2)cc1-c1ccccc1C)C(=O)O [Example 733] |
| 49% | CSCC[C@H](NC(=O)c1ccc(CSc2nnc(N)s2)cc1-c1ccccc1C)C(=O)O [Example 734] |
| 96% | CSCC[C@H](NC(=O)c1ccc(CSc2nnc[nH]2)cc1-c1ccccc1C)C(=O)O [Example 735] |
| 83% | CSCC[C@H](NC(=O)c1ccc(CSc2ccccc2C(C)C)cc1-c1ccccc1C)C(=O)O [Example 739] |
| 94% | CSCC[C@H](NC(=O)c1ccc(CSc2ccc(F)cc2)cc1-c1ccccc1C)C(=O)O [Example 740] |
| 89% | CSCC[C@H](NC(=O)c1ccc(CSc2ccc(C)cc2C)cc1-c1ccccc1C)C(=O)O [Example 741] |
| 51% | CSCC[C@H](NC(=O)c1ccc(CSc2nc(C)cc(C)n2)cc1-c1ccccc1C)C(=O)O [Example 743] |
| 93% | CSCC[C@H](NC(=O)c1ccc(CSc2nc3ccccc3c(=O)[nH]2)cc1-c1ccccc1C)C(=O)O [Example 745] |
| 84% | CSCC[C@H](NC(=O)c1ccc(CSc2ncnc3[nH]ncc23)cc1-c1ccccc1C)C(=O)O [Example 746] |
| 68% | CSCC[C@H](NC(=O)c1ccc(CSc2ncnc3[nH]cnc23)cc1-c1ccccc1C)C(=O)O [Example 747] |

Same assay, conditions: at 1 × 10^-7 M; read-out: % inhibition of farnesyltransferase

| inhibition at 0.1 µM | Structure (SMILES) |
| --- | --- |
| 56% | CSCC[C@H](NC(=O)c1ccc(NC(=O)CN)cc1-c1ccccc1)C(=O)O [Example 748] |
